The text below walks through data of US20080207751A1, “Sulindac Derivatives for Treatment of Cancer” (Sulfidris s.r.l., priority 2005, published 2008).

In data set [1] the test system is Aberrant crypt foci (ACF). Put plainly: Aberrant crypt foci (ACF) induced by 1,2-dimethylhydrazine in rats. The class given is in vivo. The note with it: DMH-induced ACF, Sprague-Dawley rats; equivalent anti-inflammatory doses, twice daily orogastric gavage for 3 weeks. As for the experimental part: Aberrant crypt foci (ACF) were induced in Sprague-Dawley rats by using 1,2-dimethylhydrazine (DMH). Test agents or vehicle were then administered for 3 weeks, twice daily through orogastric gavage.
At the end of this period, the number and multiplicity of ACF were determined.

The next data set concerns Caco 2 cells. Put plainly: Anti-proliferative activity in Caco 2 cells. The class given is cell-based. The procedure: In order to analyze sulindac derivatives in combination therapies for treatment of colon cancer, the compound of example 4 was tested in Caco 2 cell lines comparatively with other known therapeutic agents at different concentrations.
The results of the treatment with 5-FU, celecoxib and docetaxel in Caco 2 cell are depicted in the Table 3 below reported.
In another experiment the compound of example 4 at IC50 concentration was incubated with submaximal concentrations of the anti-tumoral standard agents.

The nature of data set [2]: Five-day oral safety study in rats (deaths, gastrointestinal ulcers at autopsy). The data set is classed as in vivo. The note with it: male rats, once daily by gavage for five days; sulindac sulfoxide 20 mg/kg, compound example 1 36 mg/kg. As for the experimental part:
Thirty male rats (150-200 g) were divided into three groups of 10 animals/group and treated with vehicle, sulindac sulfoxide (20 mg/kg) and the compound example 1 (36 mg/kg) for five days once daily by gavage.
At the fifth day survival animals were sacrificed 6 hr after the treatment by an overdose of ether, and autopsied to detect any pathological changes, particularly in the gastrointestinal tract.

Where two headings read alike, the source gives them in different places.

With `Cc1ccc(-c2cc(C(F)(F)F)nn2-c2ccc(S(N)(=O)=O)cc2)cc1` [celecoxib], the “reduction of the number of ACF” value in data set [1] worked out at 22%. Also, in the data set with Caco 2 cells (Homo sapiens), the half-inhibitory concentration (IC50) was found to be 60 µM.
With `CC1=C(CC(=O)Oc2ccc(-c3cc(=S)ss3)cc2)c2cc(F)ccc2/C1=C\c1ccc(S(C)(=O)=O)cc1` [Example 3, (Z)-5-Fluoro-2-methyl-1-[[4-(methylsulfone)phenyl]methylene]-1H-indene-3-acetic acid 4-(thioxo-5H-[1,2]dithiol-3-yl)-phenyl ester], the “reduction of the number of ACF” value in data set [1] came out at 45%.
As to `O=c1[nH]cc(F)c(=O)[nH]1` [Example 5-FU], the concentration for half-maximal inhibition (IC50) with Caco 2 cells came out at 28 µM.
Consider `CC1=C(CC(=O)Oc2ccc(-c3cc(=S)ss3)cc2)c2cc(F)ccc2/C1=C\c1ccc([S+](C)[O-])cc1` (centres unmarked) [Example 1, (Z)-5-Fluoro-2-methyl-1-[[4-(methylsulfinyl)phenyl]methylene]-1H-indene-3-acetic acid 4-(thioxo-5H-1-[1,2]dithiol-3-yl)-phenyl ester], for which, in data set [2], the “% deaths” value was found to be 0% and the “% gastrontestinal ulcers” value is listed as 10%.
Take `CC1=C(CC(=O)OCCSS(C)(=O)=O)c2cc(F)ccc2/C1=C\c1ccc(S(C)(=O)=O)cc1` [Example 8, (Z)-5-Fluoro-2-methyl-1-[[4-(methylsulfone)phenyl]methylene]-1H-indene-3-acetic acid 2-methanesulfonylsulfanylethyl ester]: the “reduction of the number of ACF” value in data set [1] amounted to 60%.
Take `CC(=O)O[C@@]12CO[C@@H]1C[C@H](O)[C@@]1(C)C(=O)[C@H](O)C3=C(C)[C@@H](OC(=O)[C@H](O)[C@@H](NC(=O)OC(C)(C)C)c4ccccc4)C[C@@](O)([C@@H](OC(=O)c4ccccc4)[C@H]21)C3(C)C` [Docetaxel]: in the data set with Caco 2 cells (Homo sapiens), the IC50 was found to be 0.005 µM.
`CC1=C(CC(=O)O)c2cc(F)ccc2/C1=C\c1ccc([S+](C)[O-])cc1` (centres unmarked) [Sulindac sulfoxide, (Z)-5-Fluoro-2-methyl-1-[[4-(methylsulfinyl)phenyl]methylene]-1H-indene-3-acetic acid]: in data set [1], the “reduction of the number of ACF” value was 46%. Further, in data set [2], the “% deaths” value is recorded as 70% and the “% gastrontestinal ulcers” value amounted to 100%.
With `CC1=C(CC(=O)O)c2cc(F)ccc2/C1=C\c1ccc(S(C)(=O)=O)cc1` [sulindac sulfone, (Z)-5-Fluoro-2-methyl-1-[[4-(methylsulfone)phenyl]methylene]-1H-indene-3-acetic acid], the “reduction of the number of ACF” value in data set [1] is given as 36%.
As for `CC1=C(CC(=O)OCCSS(C)(=O)=O)c2cc(F)ccc2/C1=C\c1ccc([S+](C)[O-])cc1` (centres unmarked) [Example 4, (Z)-5-Fluoro-2-methyl-1-[[4-(methylsulfinyl)phenyl]methylene]-1H-indene-3-acetic acid 2-methanesulfonylsulfanylethyl ester], the IC50 in the data set with Caco 2 cells (Homo sapiens) was 55 µM. Also, in the data set on Caco 2 cells (compound at IC50 concentration incubated with submaximal concentrations of standard agents), the “anti-proliferative activity in combination with anti-tumoral standard agents” value was “marked potentiation”.
